Measurements as given in patent US10421761B2, “Compounds for kinase modulation, and indications therefor” (Plexxikon Inc., priority 2013, dated 2019).

Assay: Plasma exposure (PK analysis) in the xenograft efficacy study
Type: in vivo
Conditions: mouse, oral, COLO205 xenograft model, 25 mg/kg twice daily, read-out: plasma exposure, steady state AUC
Method: All animal studies were conducted in accordance with the Institute for Laboratory Animal Research Guide for the Care and Use of Laboratory Animals and the USDA Animal Welfare Act. The same formulation was used for both COL0205 and B9 xenograft studies. The powder of test compound was dissolved in pure N-methyl-2-pyrrolidone (NMP). Diluent consists of PEG400: TPGS:Poloxamer 407:Water (40:5:5:50). Before gavage administration, fresh stock of NMP compound solution (or NMP for vehicle) was thoroughly mixed with the diluents to make a uniform suspension. Dosing volume is 5 μl/g. On the last day of the efficacy study, blood samples were collected at 0, 2, 4, and 8 hrs after last dosing, 2 animals/time point, for PK analysis.

## CCCS(=O)(=O)Nc1ccc(F)c(C(=O)c2c[nH]c3ncc(-c4ccc(Cl)cc4)cc23)c1F [vemurafenib]
  AUC: 200 µg·h/mL
